Measured values taken from US20190374512A1, “COMPOUNDS FOR TREATMENT OF PANCREATIC CANCER” (UNIVERSITY OF TENNESSEE RESEARCH FOUNDATION, priority 2018, published 2019).

Test system: PC-3/Txr tumors
Test: PC-3/Txr tumor growth inhibition, oral dosing
Conditions: in vivo

CC(=O)O[C@@]12CO[C@@H]1C[C@H](O)[C@@]1(C)C(=O)[C@H](O)C3=C(C)[C@@H](OC(=O)[C@H](O)[C@@H](NC(=O)OC(C)(C)C)c4ccccc4)C[C@@](O)([C@@H](OC(=O)c4ccccc4)[C@H]21)C3(C)C [docetaxel]
efficacy in PC-3/Txr tumors: lack of efficacy
